{"source": "ChEMBL document CHEMBL5465560", "about": "“Selectivity Literature for EUbOPEN Chemogenomic Library” (2024)", "key": {"[1]": {"biological_target": "Protein arginine N-methyltransferase 6 (Homo sapiens, UniProt Q96LA8)", "sequence (Q96LA8 whole entry, looked up)": "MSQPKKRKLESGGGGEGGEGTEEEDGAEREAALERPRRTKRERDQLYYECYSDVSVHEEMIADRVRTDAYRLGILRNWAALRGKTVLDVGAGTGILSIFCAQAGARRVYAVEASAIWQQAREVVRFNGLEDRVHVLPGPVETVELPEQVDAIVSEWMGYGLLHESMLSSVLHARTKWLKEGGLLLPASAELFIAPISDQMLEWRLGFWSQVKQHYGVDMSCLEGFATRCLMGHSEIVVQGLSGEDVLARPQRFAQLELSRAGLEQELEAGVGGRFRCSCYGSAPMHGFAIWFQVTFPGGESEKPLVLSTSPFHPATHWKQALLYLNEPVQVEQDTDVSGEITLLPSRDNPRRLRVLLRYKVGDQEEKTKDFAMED", "settings": "at 10 µM"}, "[2]": {"biological_target": "T1, Serine/threonine-protein kinase Sgk3 (Homo sapiens) (UniProt Q96BR1)", "T1 sequence (whole entry)": "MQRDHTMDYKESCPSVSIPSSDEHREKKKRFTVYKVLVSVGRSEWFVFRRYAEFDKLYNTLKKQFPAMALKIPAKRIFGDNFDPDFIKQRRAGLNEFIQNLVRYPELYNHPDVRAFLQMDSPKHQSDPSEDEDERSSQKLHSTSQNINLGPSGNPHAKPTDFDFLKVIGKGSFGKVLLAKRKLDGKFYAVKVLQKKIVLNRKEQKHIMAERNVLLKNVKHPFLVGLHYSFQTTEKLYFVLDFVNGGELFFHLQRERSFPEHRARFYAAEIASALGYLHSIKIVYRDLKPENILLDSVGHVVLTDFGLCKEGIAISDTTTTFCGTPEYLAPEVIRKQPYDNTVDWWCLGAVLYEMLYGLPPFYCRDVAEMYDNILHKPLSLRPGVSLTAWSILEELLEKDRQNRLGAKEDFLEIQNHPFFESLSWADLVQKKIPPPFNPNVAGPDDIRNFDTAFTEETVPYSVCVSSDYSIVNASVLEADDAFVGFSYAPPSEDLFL", "assay": "Selectivity interaction (KinomeScan (DiscoverX)) EUB0000695a SGK3", "settings": "at 100 nM"}, "[3]": {"biological_target": "Serine/threonine-protein kinase N2 (Homo sapiens, UniProt Q16513)", "sequence (Q16513 whole entry, looked up)": "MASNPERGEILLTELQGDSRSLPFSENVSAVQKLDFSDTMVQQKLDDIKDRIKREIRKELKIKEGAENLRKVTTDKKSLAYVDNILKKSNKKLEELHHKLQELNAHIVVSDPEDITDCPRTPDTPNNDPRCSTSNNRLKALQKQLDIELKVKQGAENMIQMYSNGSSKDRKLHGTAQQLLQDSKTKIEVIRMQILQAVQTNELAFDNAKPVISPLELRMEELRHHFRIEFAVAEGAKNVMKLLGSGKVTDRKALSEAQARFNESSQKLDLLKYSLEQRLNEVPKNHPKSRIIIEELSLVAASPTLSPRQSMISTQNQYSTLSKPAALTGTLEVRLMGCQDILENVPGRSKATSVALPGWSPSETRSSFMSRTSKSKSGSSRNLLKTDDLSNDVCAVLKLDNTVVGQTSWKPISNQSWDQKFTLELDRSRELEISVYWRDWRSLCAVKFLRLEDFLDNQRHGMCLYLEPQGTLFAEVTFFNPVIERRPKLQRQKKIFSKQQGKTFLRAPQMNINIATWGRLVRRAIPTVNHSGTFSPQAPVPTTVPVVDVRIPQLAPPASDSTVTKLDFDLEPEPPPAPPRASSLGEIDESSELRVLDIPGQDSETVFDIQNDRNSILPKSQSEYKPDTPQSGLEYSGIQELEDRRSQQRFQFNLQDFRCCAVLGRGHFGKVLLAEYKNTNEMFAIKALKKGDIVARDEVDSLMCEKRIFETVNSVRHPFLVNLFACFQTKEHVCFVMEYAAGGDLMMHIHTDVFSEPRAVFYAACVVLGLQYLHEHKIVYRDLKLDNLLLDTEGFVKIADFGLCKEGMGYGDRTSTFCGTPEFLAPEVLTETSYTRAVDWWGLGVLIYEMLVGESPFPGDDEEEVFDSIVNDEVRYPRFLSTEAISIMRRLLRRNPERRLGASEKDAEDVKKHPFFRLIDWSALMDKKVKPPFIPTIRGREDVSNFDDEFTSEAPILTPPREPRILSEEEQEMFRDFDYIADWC", "assay": "Selectivity interaction (KinomeScan (DiscoverX)) EUB0000695a PKN2", "settings": "at 100 nM"}, "[4]": {"biological_target": "Macrophage-stimulating protein receptor (Homo sapiens, UniProt Q04912)", "assay": "Selectivity interaction (Kinase panel (Z-LYTE Assay)) EUB0001632a MST1R", "settings": "at 10 µM"}, "[5]": {"biological_target": "Maternal embryonic leucine zipper kinase (Homo sapiens) (UniProt Q14680)", "settings": "at 10 µM"}, "[6]": {"biological_target": "MAP kinase-activated protein kinase 2 (Homo sapiens, UniProt P49137)", "sequence (P49137 whole entry, looked up)": "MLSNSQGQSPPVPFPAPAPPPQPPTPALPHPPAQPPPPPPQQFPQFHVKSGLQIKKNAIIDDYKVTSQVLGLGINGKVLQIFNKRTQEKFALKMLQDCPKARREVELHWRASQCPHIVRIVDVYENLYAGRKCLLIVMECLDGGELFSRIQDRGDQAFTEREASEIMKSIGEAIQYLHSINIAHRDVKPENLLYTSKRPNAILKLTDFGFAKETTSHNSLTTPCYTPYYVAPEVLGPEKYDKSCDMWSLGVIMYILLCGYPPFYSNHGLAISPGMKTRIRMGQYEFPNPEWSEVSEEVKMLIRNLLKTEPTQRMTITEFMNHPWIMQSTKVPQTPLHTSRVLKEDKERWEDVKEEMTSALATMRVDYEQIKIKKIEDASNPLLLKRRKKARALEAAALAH", "assay": "Selectivity interaction (KinomeScan (DiscoverX)) EUB0000607a MAPKAPK2", "settings": "at 10 µM"}, "[7]": {"biological_target": "MAP/microtubule affinity-regulating kinase 3 (Homo sapiens) (UniProt P27448)", "sequence (P27448 whole entry, looked up)": "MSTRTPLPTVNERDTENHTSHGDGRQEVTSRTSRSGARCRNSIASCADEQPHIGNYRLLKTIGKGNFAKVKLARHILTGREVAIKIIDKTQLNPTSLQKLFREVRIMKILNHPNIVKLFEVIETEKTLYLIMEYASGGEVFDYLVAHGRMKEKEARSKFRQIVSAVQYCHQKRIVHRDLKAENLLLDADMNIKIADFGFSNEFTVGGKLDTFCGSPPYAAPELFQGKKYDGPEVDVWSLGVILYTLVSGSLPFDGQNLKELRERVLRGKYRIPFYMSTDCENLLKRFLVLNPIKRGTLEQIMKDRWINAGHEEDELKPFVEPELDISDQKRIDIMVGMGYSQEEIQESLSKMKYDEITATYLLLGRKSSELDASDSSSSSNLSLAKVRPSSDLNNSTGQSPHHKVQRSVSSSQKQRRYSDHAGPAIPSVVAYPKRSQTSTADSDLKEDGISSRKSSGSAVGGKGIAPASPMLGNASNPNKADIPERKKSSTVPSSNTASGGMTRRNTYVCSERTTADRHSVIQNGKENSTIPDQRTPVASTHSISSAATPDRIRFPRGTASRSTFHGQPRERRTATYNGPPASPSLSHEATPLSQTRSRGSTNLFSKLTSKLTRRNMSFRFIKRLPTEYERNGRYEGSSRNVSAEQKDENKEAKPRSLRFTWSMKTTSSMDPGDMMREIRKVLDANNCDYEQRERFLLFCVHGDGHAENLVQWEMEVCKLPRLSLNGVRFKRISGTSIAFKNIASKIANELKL", "assay": "Selectivity interaction (ActivX KiNativ screen (kinase selectivity in THP-1 cell lysates)) EUB0000639a MARK3", "type": "subcellular", "settings": "lysate, at 5 µM"}, "[8]": {"biological_target": "T2, Inhibitor of nuclear factor kappa-B kinase subunit epsilon (Homo sapiens) (UniProt Q14164)", "T2 sequence (whole entry)": "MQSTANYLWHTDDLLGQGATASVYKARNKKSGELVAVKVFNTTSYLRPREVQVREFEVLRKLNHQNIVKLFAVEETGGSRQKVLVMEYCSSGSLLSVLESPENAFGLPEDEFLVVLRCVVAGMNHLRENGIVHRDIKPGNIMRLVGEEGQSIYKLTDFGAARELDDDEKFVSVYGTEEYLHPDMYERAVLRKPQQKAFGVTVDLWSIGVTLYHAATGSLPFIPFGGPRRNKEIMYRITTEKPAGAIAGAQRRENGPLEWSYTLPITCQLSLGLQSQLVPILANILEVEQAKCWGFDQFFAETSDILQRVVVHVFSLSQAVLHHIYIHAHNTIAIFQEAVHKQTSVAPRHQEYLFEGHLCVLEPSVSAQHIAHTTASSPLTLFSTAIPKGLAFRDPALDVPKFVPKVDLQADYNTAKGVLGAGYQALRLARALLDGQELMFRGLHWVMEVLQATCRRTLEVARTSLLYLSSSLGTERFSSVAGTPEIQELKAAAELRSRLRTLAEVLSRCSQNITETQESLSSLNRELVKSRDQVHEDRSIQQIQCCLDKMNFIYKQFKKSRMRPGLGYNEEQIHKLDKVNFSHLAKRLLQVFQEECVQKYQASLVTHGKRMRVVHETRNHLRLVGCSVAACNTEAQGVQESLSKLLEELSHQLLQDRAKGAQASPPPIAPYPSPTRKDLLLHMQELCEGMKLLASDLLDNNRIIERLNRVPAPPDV", "assay": "Selectivity interaction (ActivX KiNativ screen (kinase selectivity in THP-1 cell lysates)) EUB0000639a IKBKE", "type": "subcellular", "settings": "lysate, at 0.01 µM"}, "[9]": {"biological_target": "SRSF protein kinase 1 (Homo sapiens, UniProt Q96SB4)", "sequence (Q96SB4 whole entry)": "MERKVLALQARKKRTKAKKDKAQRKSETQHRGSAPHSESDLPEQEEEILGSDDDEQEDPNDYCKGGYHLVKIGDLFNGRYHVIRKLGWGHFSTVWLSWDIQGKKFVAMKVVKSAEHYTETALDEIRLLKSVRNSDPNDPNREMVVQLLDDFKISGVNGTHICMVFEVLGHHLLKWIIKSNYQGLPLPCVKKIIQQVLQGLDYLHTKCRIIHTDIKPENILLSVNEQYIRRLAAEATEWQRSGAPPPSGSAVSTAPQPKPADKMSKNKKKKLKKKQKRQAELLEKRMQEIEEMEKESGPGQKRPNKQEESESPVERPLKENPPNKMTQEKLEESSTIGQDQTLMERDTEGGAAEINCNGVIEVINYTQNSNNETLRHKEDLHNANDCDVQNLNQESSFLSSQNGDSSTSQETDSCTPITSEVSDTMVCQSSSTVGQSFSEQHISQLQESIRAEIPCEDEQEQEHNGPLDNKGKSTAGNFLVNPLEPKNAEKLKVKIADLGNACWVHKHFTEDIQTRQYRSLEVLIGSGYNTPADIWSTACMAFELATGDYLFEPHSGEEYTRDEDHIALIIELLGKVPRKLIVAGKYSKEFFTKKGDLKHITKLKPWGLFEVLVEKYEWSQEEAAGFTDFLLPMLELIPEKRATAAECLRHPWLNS", "assay": "Selectivity interaction (ActivX KiNativ screen (kinase selectivity in THP-1 cell lysates)) EUB0000639a SRPK1", "type": "subcellular", "settings": "lysate"}, "[10]": {"biological_target": "Serine/threonine-protein kinase PLK3 (Homo sapiens, UniProt Q9H4B4)", "sequence (Q9H4B4 whole entry, looked up)": "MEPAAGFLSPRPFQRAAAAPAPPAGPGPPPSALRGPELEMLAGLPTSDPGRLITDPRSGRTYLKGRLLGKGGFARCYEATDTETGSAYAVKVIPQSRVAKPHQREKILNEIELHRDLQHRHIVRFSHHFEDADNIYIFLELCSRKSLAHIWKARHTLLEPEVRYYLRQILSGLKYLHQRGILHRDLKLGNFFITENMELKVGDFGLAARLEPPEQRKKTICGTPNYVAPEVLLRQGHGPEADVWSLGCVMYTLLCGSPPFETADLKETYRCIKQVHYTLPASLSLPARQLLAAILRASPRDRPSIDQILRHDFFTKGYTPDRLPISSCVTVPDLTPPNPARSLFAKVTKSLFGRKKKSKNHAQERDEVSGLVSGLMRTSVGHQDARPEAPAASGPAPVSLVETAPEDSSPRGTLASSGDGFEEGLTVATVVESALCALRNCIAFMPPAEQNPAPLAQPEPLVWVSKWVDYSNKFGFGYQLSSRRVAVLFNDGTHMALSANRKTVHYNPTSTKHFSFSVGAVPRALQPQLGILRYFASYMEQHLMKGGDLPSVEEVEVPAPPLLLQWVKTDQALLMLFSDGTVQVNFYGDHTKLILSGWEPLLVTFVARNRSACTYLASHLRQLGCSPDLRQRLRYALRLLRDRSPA", "assay": "Selectivity interaction (KinomeScan (DiscoverX)) EUB0000092b PLK3", "settings": "at 10 µM"}, "[11]": {"biological_target": "T3, Dual specificity mitogen-activated protein kinase kinase 4 (Homo sapiens) (UniProt P45985)", "T3 sequence (whole entry)": "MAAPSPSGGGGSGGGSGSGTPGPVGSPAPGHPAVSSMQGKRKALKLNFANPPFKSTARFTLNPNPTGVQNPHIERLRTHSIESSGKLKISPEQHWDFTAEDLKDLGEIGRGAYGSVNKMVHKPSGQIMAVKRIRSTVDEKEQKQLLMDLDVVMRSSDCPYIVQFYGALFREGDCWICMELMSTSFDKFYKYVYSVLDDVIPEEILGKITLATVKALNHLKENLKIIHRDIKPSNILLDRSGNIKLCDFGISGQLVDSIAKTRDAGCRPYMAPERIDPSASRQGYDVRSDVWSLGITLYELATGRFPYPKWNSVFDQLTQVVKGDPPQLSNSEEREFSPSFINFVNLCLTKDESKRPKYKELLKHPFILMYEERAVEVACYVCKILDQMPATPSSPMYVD", "assay": "Selectivity interaction (KinomeScan (DiscoverX)) EUB0000092b MAP2K4", "settings": "at 10 µM"}, "[12]": {"biological_target": "Mitotic checkpoint serine/threonine-protein kinase BUB1 (Homo sapiens, UniProt O43683)", "sequence (O43683 whole entry, looked up)": "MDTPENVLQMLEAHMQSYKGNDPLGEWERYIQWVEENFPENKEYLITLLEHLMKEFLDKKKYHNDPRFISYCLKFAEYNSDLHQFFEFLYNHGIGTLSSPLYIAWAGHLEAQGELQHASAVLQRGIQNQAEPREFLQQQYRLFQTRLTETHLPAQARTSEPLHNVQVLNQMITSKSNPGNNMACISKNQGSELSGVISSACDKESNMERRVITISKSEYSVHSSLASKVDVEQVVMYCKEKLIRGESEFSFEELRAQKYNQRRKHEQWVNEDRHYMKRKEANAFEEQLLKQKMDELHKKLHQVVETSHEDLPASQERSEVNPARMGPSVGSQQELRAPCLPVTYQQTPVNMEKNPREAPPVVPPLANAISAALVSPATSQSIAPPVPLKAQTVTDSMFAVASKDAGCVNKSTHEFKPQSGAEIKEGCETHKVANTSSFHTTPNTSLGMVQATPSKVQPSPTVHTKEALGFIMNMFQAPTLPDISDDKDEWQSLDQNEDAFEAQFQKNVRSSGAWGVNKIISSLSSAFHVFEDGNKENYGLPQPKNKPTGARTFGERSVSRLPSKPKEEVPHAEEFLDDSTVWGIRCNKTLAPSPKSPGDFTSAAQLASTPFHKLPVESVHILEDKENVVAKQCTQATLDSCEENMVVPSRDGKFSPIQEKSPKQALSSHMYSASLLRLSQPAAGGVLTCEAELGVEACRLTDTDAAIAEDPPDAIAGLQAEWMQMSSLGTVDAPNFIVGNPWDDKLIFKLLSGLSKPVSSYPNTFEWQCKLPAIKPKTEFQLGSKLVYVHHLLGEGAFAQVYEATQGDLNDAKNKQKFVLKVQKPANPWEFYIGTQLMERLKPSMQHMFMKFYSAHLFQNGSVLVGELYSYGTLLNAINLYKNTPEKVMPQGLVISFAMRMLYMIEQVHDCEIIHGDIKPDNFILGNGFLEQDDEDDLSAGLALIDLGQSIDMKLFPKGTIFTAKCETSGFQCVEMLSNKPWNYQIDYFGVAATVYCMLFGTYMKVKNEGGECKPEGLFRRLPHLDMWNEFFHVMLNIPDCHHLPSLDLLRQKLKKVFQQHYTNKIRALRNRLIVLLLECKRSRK", "assay": "Selectivity interaction (Ambit KINOMEscan and KiNATiv profiling in Jurkat cells) EUB0000090b BUB1", "type": "cell-based", "settings": "at 1 µM"}}, "data": [{"compound": "CNCCN1CCC(c2cc(CN(C)C(=O)c3cccc(Oc4ccccc4)c3)ccn2)CC1", "values": [{"measurement": "% activity", "setting": "[1]", "result": 42, "unit": "%"}]}, {"compound": "Cc1cc(F)c(C(=O)Nc2cccc(-c3nncn3C(C)C)n2)cc1-n1cnc(C2CC2)c1", "values": [{"measurement": "% of control", "setting": "[2]", "result": 100, "unit": "%"}, {"measurement": "% of control", "setting": "[3]", "result": 63, "unit": "%"}]}, {"compound": "Cn1cc(-n2cnc3c(NCc4nc5cc(Cl)c(Cl)cc5[nH]4)nc(N4CCOCC4)nc32)cn1", "values": [{"measurement": "% of control", "setting": "[4]", "result": -2.62, "unit": "%"}]}, {"compound": "Cc1cc([C@@H](C)Nc2ccccc2C(=O)O)c2nc(N3CCOCC3)cc(=O)n2c1", "note": "[AZD-6482]", "values": [{"measurement": "% of control", "setting": "[5]", "result": 100, "unit": "%"}]}, {"compound": "CNC(=O)Nc1ccc(-c2nc(N3CC4CCC(C3)O4)c3cnn(C4CCC5(CC4)OCCO5)c3n2)cc1", "values": [{"measurement": "% of control", "setting": "[6]", "result": 82, "unit": "%"}]}, {"compound": "CC[C@@H]1[C@H](F)C(=O)N[C@@H]1COc1nccc2cc(C(N)=O)c(OC)cc12", "note": "[ZIMLOVISERTIB]", "values": [{"measurement": "% of inhibition", "setting": "[7]", "result": 36.9, "unit": "%"}, {"measurement": "% of inhibition", "setting": "[8]", "result": -51.9, "unit": "%"}, {"measurement": "% of inhibition", "setting": "[9]; at 0.01 µM", "result": 6.9, "unit": "%"}, {"measurement": "% of inhibition", "setting": "[9]; at 0.04 µM", "result": -23, "unit": "%"}, {"measurement": "% of inhibition", "setting": "[9]; at 0.2 µM", "result": -5.5, "unit": "%"}, {"measurement": "% of inhibition", "setting": "[9]; at 1 µM", "result": 11.7, "unit": "%"}, {"measurement": "% of inhibition", "setting": "[9]; at 5 µM", "result": 19.9, "unit": "%"}]}, {"compound": "CCC(=O)N1CCN(c2ccc(-n3c(=O)ccc4cnc5ccc(-c6cnc7ccccc7c6)cc5c43)cc2C(F)(F)F)CC1", "values": [{"measurement": "% of control", "setting": "[10]", "result": 87, "unit": "%"}, {"measurement": "% of control", "setting": "[11]", "result": 30, "unit": "%"}]}, {"compound": "CN(C)C/C=C/C(=O)Nc1ccc(C(=O)N2CCCC(Nc3ncc(Cl)c(-c4c[nH]c5ccccc45)n3)C2)cc1", "note": "(stereo unspecified)", "values": [{"measurement": "% of control", "setting": "[12]", "result": 96, "unit": "%"}]}]}
